Source: patent publication US11479587B2, “Cationic intrinsically disordered antimicrobial peptides” (priority 2016, dated 2022)
“And” between values parts separate entries of the source, which are not always exact repeats. Identical values can stand only once. Residues, ends and D or L forms follow the SMILES beside them.

Columns and labels:
[1] = tested on: C. albicans ATCC 928; conditions: for MIC: ATCC 928, 18 h, pH 7.4
[2] = tested on: C. neoformans
[3] = Hemolysis assay; type: cell-based; conditions: for HC50 at 1 h: human, washed erythrocytes from EDTA-blood, pH 7.4
Experimental: For the hemolysis assays EDTA-blood was centrifuged at 800×g for 10 min, and the plasma and buffy coat were removed. The erythrocytes were washed three times and resuspended in 5% PBS, pH 7.4. The cells were then incubated with end-over-end rotation for 1 h at 37° C. in the presence of different concentrations of peptides (0, 3, 10, 30, 60 μm). 0.1% Triton X-100 (Sigma-Aldrich) served as positive control. The samples were then centrifuged at 800×g for 10 min.
The absorbance of hemoglobin release was measured at 540 nm and is expressed as % of Triton X-100-induced hemolysis. These values of triplicates were plotted with Graph Pad Prism 4 as a dose response curve and the CC50 was determined.

[4] = tested on: S. aureus ATCC 6538; test: CFU-assay, S. aureus-cidal activity; type: cell-based, Staphylococcus aureus
Experimental: Thus, within the present invention, the antimicrobial activity is generally measured in nutrient deficient 10 mM sodium phosphate buffer pH 5.5, containing 0.25% glucose, using the CFU-assay according to Steinberg and Lehrer, 1997 (supra), unless otherwise indicated. The CFU-assay allows determination of the minimal bactericidal concentration (MBC, e.g., MBC90 and MBC100; i.e. the concentration of compound required to achieve a specified reduction in bacterial cell number (microbial death or killing)).
Various peptides corresponding to repeat domains of hornerin (HR 1-11: HRNR 2606-2628; HR 1-17: HRNR 2656-2684 and HR 1-18: HRNR 2656-2677) were tested for P. aeruginosa ATCC 10145-cidal activity in 10 mM Na-phosphate buffer pH 5.5, containing 0.25% glucose by counting the numbers of colonies of surviving bacteria at serial, twofold dilutions from 300 μg/ml down to 19 ng/ml of each peptide (CFU-assay; Steinberg and Lehrer, 1997, Methods Mol. Biol. 78, 169-186).
Staphylococcus aureus is a major skin pathogen, which causes skin infections, in particular in atopic dermatitis. The sensitivity of S. aureus ATCC 6538 towards several CIDAMPs was assessed using the CFU-assay as above (see Example 1). HR 1-18, which lacks S. aureus.-bactericidal activity, is converted in a S. aureus-cidal peptide, when all His are replaced by Arg (HR 1-18 4H-4R; see Table 13 and FIG. 9). […] HR 1-18 4H-4R is rich in Ser and Arg and contains a single Leu residue. When this single Leu was replaced by Gly in S. aureus-cidal HR 1-18 4H-4R (forming HR 1-18 4H-4R/L-G), S. aureus-cidal activity was abolished at both pH 7.0 and pH 5.5 (see Table 13 and FIG. 9).

[5] = Cytotoxicity (resazurin) assay
Experimental: For the cytotoxicity (resazurin) assay, HEK293 cells were counted manually in a Neubauer haemocytometer and plated at a density of 4000 cells/well into each well of the 384-well plates containing the 25×(2 μl) concentrated compounds. The medium used was Dulbecco's modified eagle medium (DMEM) supplemented with 10% foetal bovine serum (FBS). Cells were incubated together with the compounds for 20 h at 37° C., 5% CO2. To measure cytotoxicity, 5 μl (equals 100 μM final) resazurin was added to each well after incubation, and incubated for further 3 h at 37° C. with 5% CO2.
After final incubation fluorescence intensity was measured as F ex 560/10 nm, em 590/10 nm (F560/590) using a Tecan M1000 Pro monochromator plate reader. […] The concentration dependent percentage cytotoxicity was fitted to a dose response function (using Pipeline Pilot) and CC50 values determined.

[6] = tested on: methicillin-resistant S. aureus strain (ATCC 43300); type: cell-based, Staphylococcus aureus; conditions: ATCC 43300, 18 h
Experimental: Furthermore, sensitivity of a methicillin-resistant S. aureus strain (ATCC 43300) was investigated for palmitoylated CIDAMPs in a microtiter plate screening model, with incubation in Mueller-Hinton medium at 37° C. for 18 h using resazurin as a marker for cell viability.
A sample of each culture was then diluted 40-fold in fresh broth and incubated at 37° C. for 1.5-3 h. […] All the plates were covered and incubated at 37° C. for 18 h.
Inhibition of bacterial growth was determined using resazurin as a marker for cell viability. Resazurin was added to each well, at 0.001% final concentration, and plates incubated at 37° C. for 2 h. Fluorescence intensity was measured, using F (top read), ex 560/10 nm, em 590/10 nm, using a Tecan M1000 Pro monochromator plate reader.

[7] = standard conditions at pH 7.4, activity at concentration <32 pg/ml

Compound | HC50 at 1 h [3] | CC50 [5] | MIC, S. aureus ATCC 43300 [6] | MIC [1] | MIC, C. neoformans ATCC 208821 [2] | HC50 [3] | further results
N=C(N)NCCC[C@H](NC(=O)[C@H](CCCNC(=N)N)NC(=O)[C@H](CS)NC(=O)[C@H](CCCNC(=N)N)NC(=O)[C@H](Cc1c[nH]cn1)NC(=O)[C@H](CO)NC(=O)[C@H](CCCNC(=N)N)NC(=O)[C@H](CS)NC(=O)[C@H](CS)NC(=O)[C@H](CCCNC(=N)N)NC(=O)[C@H](Cc1c[nH]cn1)NC(=O)[C@H](Cc1c[nH]cn1)NC(=O)[C@@H](N)CO)C(=O)O [LCE3B56-68] (H-SHHRCCRSHRCRR-OH; N-terminus and C-terminus assumed) | > 113 µM | > 32 µg/mL and > 18.9 µM |  |  |  |  | Antifungal activity, C. albcans ATCC90028 [1, 7]: I (I-inactive); Antifungal activity, C. neoformans ATCC 208821 [2, 7]: A (A-active); CC50 [3]: > 300 mg/L; S. aureus MBC90 ([4]; pH 5.5): 0.044 µM; S. aureus MBC100 ([4]; pH 5.5): >88.7 µM; MBC90 ([4]; pH 5.5, 0.25% glucose): 0.075 mg/L; MBC100 ([4]; pH 5.5, 0.25% glucose): >150 mg/L; max.killing ([4]; pH 5.5, 0.25% glucose): max.killing: 99.3%; MBC90 ([4]; pH 5.5, 0.25% glucose (text)): 0.044 µM
N=C(N)NCCC[C@H](NC(=O)[C@H](CCCNC(=N)N)NC(=O)[C@H](CS)NC(=O)[C@H](CCCNC(=N)N)NC(=O)[C@H](Cc1c[nH]cn1)NC(=O)[C@H](CO)NC(=O)[C@H](CCCNC(=N)N)NC(=O)[C@H](CS)NC(=O)[C@H](CS)NC(=O)[C@H](CCCNC(=N)N)NC(=O)[C@H](Cc1c[nH]cn1)NC(=O)[C@H](Cc1c[nH]cn1)NC(=O)[C@@H](N)CO)C(=O)O [LCE3B5668] (H-SHHRCCRSHRCRR-OH; N-terminus and C-terminus assumed) |  |  | ≥32 mg/L |  |  |  | 
CCCCCCCCCCCCCCCC(=O)NCC(=O)N[C@@H](CCCNC(=N)N)C(=O)NCC(=O)N[C@@H](CCCNC(=N)N)C(=O)O [Pal-GR4, Pal-GRGR] (HELM PEPTIDE1{[CCCCCCCCCCCCCCCC(=O)[*:2]].G.R.G.R}$$$$V2.0) |  | > 32 mg/L | ≥8 mg/L | 1 to 32 mg/L | ≥8 mg/L | 100 µg/mL | MIC, C. albicans ATCC 90028 ([1]; ATCC 928): ≥8 mg/L
CCCCCCCCCCCCCCCC(=O)NCC(=O)N[C@@H](CCCNC(=N)N)C(=O)N[C@@H](CCCNC(=N)N)C(=O)NCC(=O)NCC(=O)N[C@@H](CCCNC(=N)N)C(=O)O [Pal-GR6, Pal-GRRGGR] (HELM PEPTIDE1{[CCCCCCCCCCCCCCCC(=O)[*:2]].G.R.R.G.G.R}$$$$V2.0) |  | > 32 mg/L | ≥16 mg/L |  | ≥16 mg/L | > 300 µg/mL | 
CCCCCCCCCCCCCCCC(=O)NCC(=O)N[C@@H](CCCNC(=N)N)C(=O)N[C@@H](CCCNC(=N)N)C(=O)NCC(=O)NCC(=O)N[C@@H](CCCNC(=N)N)C(=O)NCC(=O)NCC(=O)N[C@@H](CCCNC(=N)N)C(=O)O [Pal-GR9] (HELM PEPTIDE1{[CCCCCCCCCCCCCCCC(=O)[*:2]].G.R.R.G.G.R.G.G.R}$$$$V2.0) | > 257 µM | > 32 µg/mL and > 27.4 µM | ≥8 mg/L | 1 to 32 mg/L |  | > 300 µg/mL | 
CCCCCCCCCCCCCCCC(=O)N[C@@H](Cc1c[nH]cn1)C(=O)NCC(=O)N[C@@H](CO)C(=O)N[C@@H](CCCNC(=N)N)C(=O)N[C@@H](CO)C(=O)NCC(=O)N[C@@H](CCC(N)=O)C(=O)N[C@@H](CO)C(=O)N[C@@H](CO)C(=O)N[C@@H](CCCNC(=N)N)C(=O)NCC(=O)N[C@@H](CCC(=O)O)C(=O)N[C@@H](CCCNC(=N)N)C(=O)N[C@@H](Cc1c[nH]cn1)C(=O)NCC(=O)N[C@@H](CO)C(=O)N[C@@H](CO)C(=O)N[C@@H](CO)C(=O)NCC(=O)N[C@@H](CO)C(=O)N[C@@H](CO)C(=O)N[C@@H](CO)C(=O)N[C@@H](Cc1c[nH]cn1)C(=O)O [Pal-HR 1-11] (HELM PEPTIDE1{[CCCCCCCCCCCCCCCC(=O)[*:2]].H.G.S.R.S.G.Q.S.S.R.G.E.R.H.G.S.S.S.G.S.S.S.H}$$$$V2.0) |  | > 32 mg/L | >32 mg/L |  |  |  | 
